Earlier results in patent publication US20040120985A1, “Food product for increasing the cognitive functional capacity” (priority 2001, published 2004).

Legend:
aging brain = settings: animal experimental studies
[1] = test system: cognitive functional capacity; settings: individuals older than 40 years, 100 mg to 300 mg per day
[2] = oral administration

phosphatidyl serine
ATPase-dependent ion transport via the cell membrane (aging brain): improves the ATPase-dependent ion transport via the cell membrane | age-related breakdown of the receptors for the nerve growth factor (aging brain): partially prevents the age-related breakdown of the receptors for the nerve growth factor | cholesterol/phospholipid ratio in the aging brain (aging brain): normalizes the cholesterol/phospholipid ratio in the aging brain | neuron atrophy (aging brain): protects against neuron atrophy | protein kinase C balance (aging brain): normalizes the protein kinase C balance | formation of nerve growth factors (aging brain; effect not identified for other phospholipids): promotes the formation of nerve growth factors | cognitive functional capacity [1]: increased | bioavailability [2]: good | passage of the blood-brain barrier ([2]; after passing through the liver): crosses the blood-brain barrier
